Experiments:
[1] = biological target: DNA topoisomerase 2-alpha (Homo sapiens, UniProt P11388); test: Inhibition of recombinant human topoisomerase 2alpha using supercoiled pNO1 plasmid as substrate after 30 mins by SYBR-GOLD staining based fluorimetric analysis
DNA topoisomerase 2-beta = DNA topoisomerase 2-beta (Homo sapiens, UniProt Q02880); test: Poison activity at recombinant human topoisomerase 2beta using pBR322 plasmid as substrate after 30 mins by ethidium bromide staining based agarose gel electrophoresis
DNA topoisomerase 2-beta, sequence (Q02880 whole entry): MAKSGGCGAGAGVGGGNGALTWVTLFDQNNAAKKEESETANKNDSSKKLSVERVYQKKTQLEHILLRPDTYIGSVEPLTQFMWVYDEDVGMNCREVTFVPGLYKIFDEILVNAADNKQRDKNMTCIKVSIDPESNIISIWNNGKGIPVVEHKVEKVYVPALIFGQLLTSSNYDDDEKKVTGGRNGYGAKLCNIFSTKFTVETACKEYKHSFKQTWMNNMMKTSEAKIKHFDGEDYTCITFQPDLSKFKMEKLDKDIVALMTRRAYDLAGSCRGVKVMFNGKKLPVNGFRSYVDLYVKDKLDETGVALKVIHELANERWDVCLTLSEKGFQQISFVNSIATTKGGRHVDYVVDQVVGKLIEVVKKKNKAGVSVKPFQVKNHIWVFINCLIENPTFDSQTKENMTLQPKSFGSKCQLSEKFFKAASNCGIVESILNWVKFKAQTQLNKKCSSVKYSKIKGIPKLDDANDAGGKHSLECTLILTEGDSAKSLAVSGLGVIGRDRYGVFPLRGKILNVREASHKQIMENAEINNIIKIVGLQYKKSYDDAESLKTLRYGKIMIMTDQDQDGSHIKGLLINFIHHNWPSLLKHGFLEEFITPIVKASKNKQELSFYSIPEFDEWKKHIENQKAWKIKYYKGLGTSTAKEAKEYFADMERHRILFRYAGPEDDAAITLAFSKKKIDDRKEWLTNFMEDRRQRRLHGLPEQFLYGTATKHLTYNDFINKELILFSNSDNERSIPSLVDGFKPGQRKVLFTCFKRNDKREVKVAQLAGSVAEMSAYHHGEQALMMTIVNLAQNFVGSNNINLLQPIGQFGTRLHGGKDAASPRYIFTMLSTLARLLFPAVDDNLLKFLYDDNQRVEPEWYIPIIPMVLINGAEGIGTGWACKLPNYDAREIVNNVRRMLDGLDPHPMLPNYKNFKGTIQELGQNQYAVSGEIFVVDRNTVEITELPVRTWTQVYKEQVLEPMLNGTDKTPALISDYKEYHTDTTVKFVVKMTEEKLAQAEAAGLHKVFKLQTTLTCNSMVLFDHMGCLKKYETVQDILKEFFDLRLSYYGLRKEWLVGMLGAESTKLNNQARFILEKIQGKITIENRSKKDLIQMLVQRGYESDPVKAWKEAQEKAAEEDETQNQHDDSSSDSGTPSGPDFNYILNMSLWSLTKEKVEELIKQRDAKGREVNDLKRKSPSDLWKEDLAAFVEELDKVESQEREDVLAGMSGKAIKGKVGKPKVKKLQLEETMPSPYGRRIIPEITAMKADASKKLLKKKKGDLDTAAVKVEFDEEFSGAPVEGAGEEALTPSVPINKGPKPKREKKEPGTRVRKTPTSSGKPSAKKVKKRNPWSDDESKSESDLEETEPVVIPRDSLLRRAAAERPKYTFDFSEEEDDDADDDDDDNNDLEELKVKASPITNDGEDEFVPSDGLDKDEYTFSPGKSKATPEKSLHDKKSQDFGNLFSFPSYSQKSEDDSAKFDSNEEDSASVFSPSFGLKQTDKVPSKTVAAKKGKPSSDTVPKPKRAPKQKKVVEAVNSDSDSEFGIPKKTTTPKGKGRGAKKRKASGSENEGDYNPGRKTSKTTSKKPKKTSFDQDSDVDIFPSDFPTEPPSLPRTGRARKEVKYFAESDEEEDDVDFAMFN

MCF7 = test: Antiproliferative activity against human MCF7 cells after 24 hrs by MTT assay; format: functional, cell-based; conditions: MCF7, 24 h
MDA-MB-231 = test: Antiproliferative activity against human MDA-MB-231 cells after 24 hrs by MTT assay; format: functional, cell-based; conditions: MDA-MB-231, 24 h
[2] = tested on: Panel NCI-60 (60 carcinoma cell lines); test: Antiproliferative activity against human NCI60 cells after 48 hrs by SRB assay; format: functional

DNA topoisomerase 2-alpha, sequence (P11388 whole entry): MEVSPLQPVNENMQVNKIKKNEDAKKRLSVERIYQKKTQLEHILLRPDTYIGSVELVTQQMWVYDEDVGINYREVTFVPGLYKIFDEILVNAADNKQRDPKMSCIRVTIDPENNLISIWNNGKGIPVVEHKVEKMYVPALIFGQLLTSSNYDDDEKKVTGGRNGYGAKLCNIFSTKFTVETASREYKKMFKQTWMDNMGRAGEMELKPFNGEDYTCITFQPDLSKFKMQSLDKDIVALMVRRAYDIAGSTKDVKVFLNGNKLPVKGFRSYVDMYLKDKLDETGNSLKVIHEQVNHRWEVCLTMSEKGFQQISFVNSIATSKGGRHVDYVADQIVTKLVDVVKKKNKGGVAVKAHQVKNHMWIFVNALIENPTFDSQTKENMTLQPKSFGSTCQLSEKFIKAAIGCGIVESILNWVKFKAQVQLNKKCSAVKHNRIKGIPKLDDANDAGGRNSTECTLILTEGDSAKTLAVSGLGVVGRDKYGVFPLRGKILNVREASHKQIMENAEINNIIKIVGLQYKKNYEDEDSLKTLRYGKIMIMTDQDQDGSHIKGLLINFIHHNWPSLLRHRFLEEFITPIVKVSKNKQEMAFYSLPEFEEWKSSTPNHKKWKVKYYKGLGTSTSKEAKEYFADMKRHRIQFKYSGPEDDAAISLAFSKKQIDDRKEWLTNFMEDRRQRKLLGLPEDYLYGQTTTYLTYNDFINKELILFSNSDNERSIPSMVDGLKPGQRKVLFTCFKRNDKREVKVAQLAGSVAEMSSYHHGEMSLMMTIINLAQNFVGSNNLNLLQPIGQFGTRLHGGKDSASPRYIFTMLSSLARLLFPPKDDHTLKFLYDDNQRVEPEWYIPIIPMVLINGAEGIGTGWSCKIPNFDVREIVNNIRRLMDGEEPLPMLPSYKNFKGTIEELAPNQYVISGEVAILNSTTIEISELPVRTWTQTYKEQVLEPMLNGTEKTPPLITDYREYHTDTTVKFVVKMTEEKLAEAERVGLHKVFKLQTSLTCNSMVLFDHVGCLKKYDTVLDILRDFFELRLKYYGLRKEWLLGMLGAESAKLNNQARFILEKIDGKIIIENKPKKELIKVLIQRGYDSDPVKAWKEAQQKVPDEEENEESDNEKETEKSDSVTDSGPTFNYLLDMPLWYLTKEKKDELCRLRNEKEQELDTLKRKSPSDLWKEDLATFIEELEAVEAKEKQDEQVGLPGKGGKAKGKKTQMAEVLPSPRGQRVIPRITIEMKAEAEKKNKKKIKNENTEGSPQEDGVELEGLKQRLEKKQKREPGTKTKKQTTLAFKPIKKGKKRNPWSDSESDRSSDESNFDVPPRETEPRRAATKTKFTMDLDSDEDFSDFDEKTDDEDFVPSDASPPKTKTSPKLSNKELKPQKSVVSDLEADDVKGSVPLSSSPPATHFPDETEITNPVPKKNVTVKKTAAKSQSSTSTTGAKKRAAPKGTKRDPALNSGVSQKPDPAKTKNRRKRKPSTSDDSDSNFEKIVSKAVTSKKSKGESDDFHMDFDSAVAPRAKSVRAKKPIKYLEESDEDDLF

SMILES | IC50 (MCF7) [µM] | IC50 (MDA-MB-231) [µM] | also measured
O=C(O)c1ccc(Nc2ncnc3nc[nH]c23)cc1 | – | – | IC50 [1]: 44 µM
O=C(O)c1cccc(Nc2ncnc3[nH]cnc23)c1 | – | – | IC50 [1]: 65 µM
CN(C)CCCNc1ccc(NCCCN(C)C)c2c1C(=O)c1ccc(C(=O)Nc3ccc(S(C)(=O)=O)cc3)cc1C2=O | – | – | IC50 (DNA topoisomerase 2-beta): 4.34 to 6.71 µM
CN(C)CCNc1ccc(NCCN(C)C)c2c1C(=O)c1ccc(C(=O)Nc3ccc(S(C)(=O)=O)cc3)cc1C2=O | – | – | IC50 (DNA topoisomerase 2-beta): 5.25 to 9.31 µM
COc1cc(S(C)(=O)=O)ccc1NC(=O)c1ccc2c(c1)C(=O)c1c(NCCCN(C)C)ccc(NCCCN(C)C)c1C2=O | – | – | IC50 (DNA topoisomerase 2-beta): 1.06 to 3.33 µM
N[C@@H](Cc1ccc(N(CCCl)CCCl)cc1)C(=O)O | – | – | GI50 [2]: 29 µM
O=C1c2ccccc2C(=O)c2c(NCCNCCO)ccc(NCCNCCO)c21 [AMETANTRONE] | – | – | IC50 (DNA topoisomerase 2-beta): 0.03 to 0.99 µM
Cn1c(CCCC(=O)O)nc2cc(N(CCCl)CCCl)ccc21 [BENDAMUSTINE] | – | – | GI50 [2]: 70 µM
O=C(O)CCCc1ccc(N(CCCl)CCCl)cc1 [CHLORAMBUCIL] | – | – | GI50 [2]: 60 µM
COc1cc([C@@H]2c3cc4c(cc3[C@@H](O[C@@H]3O[C@@H]5CO[C@@H](C)O[C@H]5[C@H](O)[C@H]3O)[C@H]3COC(=O)[C@H]23)OCO4)cc(OC)c1O [ETOPOSIDE] | – | – | GI50 [2]: 12 µM

Now from value to molecule, other results behind:

IC50 (MCF7) [µM] | IC50 (MDA-MB-231) [µM] | SMILES | also measured
140 | 170 | Oc1cccc(-c2nnc(Nc3cccc(F)c3)s2)c1 | –
160 | 130 | Fc1ccc(Nc2nnc(-c3ccc(Cl)cc3Cl)s2)cc1 | –
> 200 | > 200 | Clc1ccc(OCc2nnc(Nc3ccc(Br)cc3)s2)c(Cl)c1 | –
> 200 | > 200 | Fc1cccc(Nc2nnc(-c3cccc(Cl)c3)s2)c1 | –
120 | 70 | Clc1ccc(-c2nnc(Nc3ccc(Br)cc3)s2)c(Cl)c1 | –
> 200 | > 200 | Fc1ccc(Nc2nnc(COc3ccc(Cl)cc3Cl)s2)cc1 | –

— ChEMBL document CHEMBL4382195, “Discovery of Novel Topoisomerase II Inhibitors by Medicinal Chemistry Approaches” (J Med Chem, 2018)
